The record followed here is US10919896B2, “Preparation and uses of pyrimidinone derivatives” (Cancer Research Technology Limited, priority 2016, dated 2021).

Structures can show the parent of a compound that is named as a salt. Where two headings read alike, the source gives them in different places.

For experiment [1], the system named is Cdc7 (pS53MCM2 levels in SW48 cells). The experiment is described as follows: Cdc7 Cell Pharmacodynamics Assay Method 3: pS53MCM2 levels in SW48 cells, 6 hours. Format: cell-based. The source says:
This protocol describes a method to investigate the inhibition of Cdc7 activity by measuring pS53MCM2 levels in cells, after treatment with compounds.
• SW48 cells • RPMI 1640 (Sigma, R5886) • 10% FCS (Sera Laboratories International Ltd, EU000F Batch:108005) • 100× L-Glutamine (Invitrogen, 25030-024) • D-Glucose Solution (10%) (Sigma, G8644) • HEPES Buffer Solution (Sigma, 83264) • Sodium Pyruvate (Sigma, S8636) • PBS (Fisger, BP399-4) • Trypsin/EDTA (Invitrogen 25300-054) • 2% BSA in PBS • Cell Extraction Buffer (Invitrogen FNN0011) • Protease inhibitor cocktail (Sigma P-2714) • PMSF 0.3M stock in DMSO (Sigma P7626) • Antibody-rabbit pMCM2 Ser53 (Bethyl #A300-756A) • Antibody-goat MCM2 (Bethyl #A300-122A) • Antibody-goat Anti Rabbit IgG HRP (Perbio Science UK Ltd 31462) • SuperSignal ELISA Pico Chemiluminescent Substrate (Perbio Science UK Ltd 37070) Method • Plate 30,000 SW48 cells per well in standard TC treated 96 well plate in 100 μL complete RPMI 1640 medium. • Allow cells to settle overnight in incubator set at 37° C. and 5% CO2. • Cell treatment: prepare a 384 well plate containing 80 μl PBS/well. The PBS should be at room temperature—to be referred to as intermediate plate. Transfer 2 μL of compound from mother plate to intermediate (daughter plate) 1:40 dilution, then 5 μL intermediate to cell (daughter) plate. • Once all cells are treated place the cells back to the incubator and incubate for 6 hours. • Dilute the capture antibody (total MCM2#A300-122A) 1 in 250 in the required volume of PBS (5 mL per assay plate, plus 5 mL for dead volume) and add 50 μL to each well of a Hybond plate. Seal the plate and incubate at room temperature for a minimum of 2 hours. • Defrost aliquot of Invitrogen Cell Extraction Buffer (FNN0011) on ice and supplement with appropriate volume of both Sigma protease inhibitor cocktail (P-2714) and PMSF (final conc 1 mM from a 1 M stock in DMSO). • After the 6 hour cell treatment time, tap out the media from the assay plates and place them in the −80° C. freezer for at least 5 minutes. • Remove plates from freezer and add 20 μL of ice cold complete lysis buffer, with the multidrop. Incubate cells for 30 minutes at 4° C. • Add 80 μL per well 2% BSA. • Flick out the remaining liquid from the capture plate and transfer 80 μL from the lysis plate to the same wells in the capture/ELISA plate, using the Biomek. Cover with plate seal and incubate plates overnight at 4° C. • Wash plates with PBS, remove any residual remaining liquid and add 50 μL per well of pMCM2 Ser53 antibody (#A300-756A) diluted 1 in 100 in 2% BSA. Cover plate and incubate at room temperature for 2 hours with gentle shaking. • Wash plates with PBS, remove any residual remaining liquid and Incubate with 50 μL goat anti rabbit antibody (1 in 800 dilution in 2% BSA), for 1 hour at room temperature. • Wash plates with PBS, remove any residual remaining liquid and add 50 μL mixed SuperSignal Pico substrate. • Incubate each plate for 5 minutes at room temperature shielding the plates from direct light (with a cover plate). Read plates with the luminescent detection.

The next experiment has as its target Cdc7/ASK (Homo sapiens, UniProt O00311). The experiment is described as follows: Cdc7 Biochemical Assay Method 4: off-chip mobility shift assay (Carna Biosciences). Also on record: purchased Carna Biosciences; host or cells: baculovirus expression system. The conditions noted are these: off-chip MSA, MCM2 peptide, 5 hours; read-out: Biochemical Method 4 (pIC50) (converted). The procedure: This protocol describes a method for assaying Cdc7/ASK for activity. The assay is an off-chip mobility shift assay (MSA) run at Carna Biosciences.
1. Preparation of Test Compound Solution.
The test compound was dissolved in and diluted with dimethylsulfoxide (DMSO) to achieve 100-fold higher concentration which was specified by the sponsor. Then the solution was further 25-fold diluted with assay buffer to make the final test compound solution. Reference compounds for assay control were prepared similarly.
Cdc7/ASK: Full-length human Cdc7 [1-574(end) amino acids of accession number NP_003494.1] was co-expressed as N-terminal GST-fusion protein (92 kDa) with Dbf4(ASK) [1-674(end) amino acids of accession number NP_006707.1] using baculovirus expression system. GST-Cdc7 was purified by using glutathione sepharose chromatography.
3. Assay Reagents and Procedures
Off-chip Mobility Shift Assay (MSA)
1) The […] of ×2 kinase solution were prepared with assay buffer (20 mM HEPES, 0.01% Triton X-100, 1 mM DTT, pH 7.5) and mixed and incubated in a well of polypropylene 384 well microplate for 5 hours at room temperature. 2) […] of Termination Buffer (QuickScout Screening Assist MSA; Carna Biosciences) was added to the well. 3) The reaction mixture was applied to LabChip system (Perkin Elmer), and the product and substrate peptide peaks were separated and quantitated. 4) The kinase reaction was evaluated by the product ratio calculated from peak heights of product (P) and substrate (S) peptides (P/(P+S)).
Reaction time is 5 hours.
The readout value of reaction control (complete reaction mixture) was set as a 0% inhibition, and the readout value of background (Enzyme(−)) was set as a 100% inhibition, then the percent inhibition of each test solution was calculated.
IC50 value was calculated from concentration vs. % Inhibition curves by fitting to a four parameter logistic curve.

Cdc7/ASK, sequence (O00311 whole entry): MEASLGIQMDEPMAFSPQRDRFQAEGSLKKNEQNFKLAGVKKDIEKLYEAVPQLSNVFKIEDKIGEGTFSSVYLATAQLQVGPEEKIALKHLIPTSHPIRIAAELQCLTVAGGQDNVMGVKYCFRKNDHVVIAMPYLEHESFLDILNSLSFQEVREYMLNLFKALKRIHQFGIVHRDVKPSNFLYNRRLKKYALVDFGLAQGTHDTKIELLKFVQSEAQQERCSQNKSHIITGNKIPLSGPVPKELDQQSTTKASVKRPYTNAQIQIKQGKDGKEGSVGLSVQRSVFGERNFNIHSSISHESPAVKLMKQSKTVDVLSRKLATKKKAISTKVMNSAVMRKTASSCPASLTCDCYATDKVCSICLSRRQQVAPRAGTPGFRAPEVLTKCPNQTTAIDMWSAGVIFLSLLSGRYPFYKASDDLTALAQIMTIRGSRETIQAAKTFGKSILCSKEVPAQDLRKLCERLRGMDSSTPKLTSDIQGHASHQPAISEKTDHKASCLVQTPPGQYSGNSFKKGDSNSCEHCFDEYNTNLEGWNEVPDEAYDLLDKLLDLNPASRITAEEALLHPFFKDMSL
Cdc7/ASK, sequence (Q9UBU7 whole entry partner): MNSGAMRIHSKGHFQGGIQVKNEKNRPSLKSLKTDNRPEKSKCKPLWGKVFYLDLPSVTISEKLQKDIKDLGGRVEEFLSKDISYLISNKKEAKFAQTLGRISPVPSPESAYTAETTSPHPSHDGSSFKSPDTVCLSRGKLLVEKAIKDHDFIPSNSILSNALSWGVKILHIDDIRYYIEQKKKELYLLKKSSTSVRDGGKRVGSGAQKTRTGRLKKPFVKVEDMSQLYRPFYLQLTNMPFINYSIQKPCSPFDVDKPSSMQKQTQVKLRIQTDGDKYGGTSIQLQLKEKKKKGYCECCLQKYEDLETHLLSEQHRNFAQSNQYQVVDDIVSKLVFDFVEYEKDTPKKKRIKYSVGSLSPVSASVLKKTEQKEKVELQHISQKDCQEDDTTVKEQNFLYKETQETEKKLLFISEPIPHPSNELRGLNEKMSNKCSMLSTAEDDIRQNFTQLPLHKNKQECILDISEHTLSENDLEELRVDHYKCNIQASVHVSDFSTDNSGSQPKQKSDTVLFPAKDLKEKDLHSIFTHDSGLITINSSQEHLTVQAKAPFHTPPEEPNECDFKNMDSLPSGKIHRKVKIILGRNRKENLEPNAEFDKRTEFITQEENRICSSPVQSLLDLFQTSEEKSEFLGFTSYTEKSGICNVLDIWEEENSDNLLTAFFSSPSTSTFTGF

As for `Cl.O=c1[nH]c(-c2ccnc(F)c2)nc(N2CCNC(C3CC3)C2)c1Cl` (single isomer, unassigned) [Compound 393], the “Biomarker Method 3 (pEC50)” value in experiment [1] came to 5.90. The IC50 at Cdc7/ASK was 13.8 nM.

`O=c1[nH]c(-c2ccnc(F)c2)nc(N2CCNCC(F)C2)c1Cl` (single isomer, unassigned) [Compound 379, 5-chloro-4-(6-fluoro-1,4-diazepan-1-yl)-2-(2-fluoro-4-pyridyl)-1H-pyrimidin-6-one hydrochloride]: the “Biomarker Method 3 (pEC50)” value in experiment [1] (hydrochloride) is given as 5.88. Further, the IC50 on Cdc7/ASK was 7.94 nM.
